Tests used:
Type in all cases: physicochemical
[1] = Antioxidant activity assessed as DPPH free radical scavenging activity at 100 uM after 60 mins by spectrophotometry; settings: 1 h
[2] = Antioxidant activity assessed as inhibition of lipid peroxidation at 100 uM after 1 hr by TBARS assay
[3] = Antioxidant activity assessed as inhibition of lipid peroxidation after 1 hr by TBARS assay
[4] = Antioxidant activity assessed as DPPH free radical scavenging activity after 60 mins by spectrophotometry

| SMILES | Imax [1] | Imax [2] | IC50 [3] | IC50 [4] |
| --- | --- | --- | --- | --- |
| CC(C)(C)c1cc(CSCC(=O)O)cc(C(C)(C)C)c1O | 51.2% | 73.99% | 38.8 µM | 96.7 µM |
| COc1ccccc1NC(=S)NNC(=O)CSCc1cc(C(C)(C)C)c(O)c(C(C)(C)C)c1 | 75.42% | 94.75% | 60.5 µM | 52 µM |
| COc1ccc(NC(=S)NNC(=O)CSCc2cc(C(C)(C)C)c(O)c(C(C)(C)C)c2)cc1 | 76.76% | 96.58% | 30.1 µM | 50.9 µM |
| COc1ccccc1Nc1nnc(CSCc2cc(C(C)(C)C)c(O)c(C(C)(C)C)c2)s1 | 54.69% | 89.18% | 13.2 µM | 90.8 µM |
| COc1ccc(Nc2nnc(CSCc3cc(C(C)(C)C)c(O)c(C(C)(C)C)c3)s2)cc1 | 59.29% | 89.84% | 7.98 µM | 76.8 µM |
| COc1ccccc1-n1c(S)nnc1CSCc1cc(C(C)(C)C)c(O)c(C(C)(C)C)c1 | 27.83% | 76.47% | 38.9 µM | > 100 µM |
| Cc1c(C)c2c(c(C)c1O)CC[C@@](C)(CCC[C@H](C)CCC[C@H](C)CCCC(C)C)O2 [ALPHA-TOCOPHEROL] | – | 84.69% | 5.63 µM | – |

Now from value to molecule:

| Imax [1] | Imax [2] | IC50 [3] | IC50 [4] | SMILES |
| --- | --- | --- | --- | --- |
| 52.94% | 86.43% | 2.85 µM | 92.7 µM | COc1ccc(-n2c(S)nnc2CSCc2cc(C(C)(C)C)c(O)c(C(C)(C)C)c2)cc1 |
| 71.39% | – | – | 67.8 µM | O=C1O[C@H]([C@@H](O)CO)C(O)=C1O [ASCORBIC ACID] |
| 25.23% | 79.45% | 36.7 µM | > 100 µM | Cc1cc(C(C)(C)C)c(O)c(C(C)(C)C)c1 [BUTYLATED HYDROXYTOLUENE] |

From ChEMBL document CHEMBL3351533, “PASS-assisted design, synthesis and antioxidant evaluation of new butylated hydroxytoluene derivatives” (Eur J Med Chem, 2014)
